Reference: PubChem BioAssay AID2050 (NMMLSC, 2009)
Activity calls are given as the source filed them.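 Rule for the calls: active = EC50 at or below 30 µM together with a response span of at least a set limit; inactive = the rest.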

The compounds below were run against GTPase HRas (Homo sapiens) (UniProt P01112) (assay: inhibition of fluorescent GTP binding to activated Ras – biochemical, pyrazoline analogs, multiplex bead flow cytometry, SAR follow-up (AID 2050)). Conditions: GST-Ras beads, Bodipy-FL-GTP binding.
GTPase HRas (Homo sapiens), sequence (P01112 whole entry, looked up): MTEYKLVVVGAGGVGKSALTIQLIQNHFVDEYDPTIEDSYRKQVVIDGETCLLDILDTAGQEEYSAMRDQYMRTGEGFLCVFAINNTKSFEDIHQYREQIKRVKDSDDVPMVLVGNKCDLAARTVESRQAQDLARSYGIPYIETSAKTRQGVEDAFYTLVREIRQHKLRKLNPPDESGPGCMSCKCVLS

EC50 | Structure (SMILES)
> 30 µM (inactive) | FC(F)(F)c1cccc(N2N=C(c3ccc(Cl)cc3)CC2c2ccccc2Cl)c1 (configuration not stated)
> 30 µM (inactive) | COc1ccc(-c2cc(-c3ccccc3)nn2-c2ccc(S(N)(=O)=O)cc2)cc1
> 30 µM (inactive) | O=[N+]([O-])c1cccc(C2CC(c3ccccc3)=NN2c2ccccc2)c1 (configuration not stated)
> 30 µM (inactive) | COc1ccc(C2CC(c3ccccc3)=NN2c2ccc([N+](=O)[O-])cc2)cc1 (configuration not stated)
> 30 µM (inactive) | COc1ccc(C2CC(c3ccc(Br)cc3)=NN2c2ccccc2Cl)cc1 (configuration not stated)
> 30 µM (inactive) | Cc1onc(-c2ccccc2)c1-c1ccc(S(N)(=O)=O)cc1
> 30 µM (inactive) | COc1ccc(C2CC(c3ccc(F)cc3)=NN2c2cccc(F)c2)cc1OC (configuration not stated)
> 30 µM (inactive) | FC(F)(F)c1ccccc1C1CC(c2ccc(Br)cc2)=NN1c1ccccc1 (configuration not stated)
> 30 µM (inactive) | COc1ccc(C2CC(c3cccc(N(C)C)c3)=NN2c2ccc(S(N)(=O)=O)cc2)cc1 (configuration not stated)
> 30 µM (inactive) | CN(C)c1ccc(C2CC(c3ccc(Cl)cc3)=NN2c2ccccc2)cc1 (configuration not stated)
> 30 µM (inactive) | CCc1ccc(C2=NN(c3ccc(S(N)(=O)=O)cc3)C(c3ccc(F)cc3)C2)cc1 (configuration not stated)
> 30 µM (inactive) | COc1ccc(C2CC(c3ccccc3)=NN2c2ccc(C(=O)O)cc2)cc1 (configuration not stated)
> 30 µM (inactive) | Fc1ccc(C2=NN(c3cccc(Br)c3)C(c3ccccc3)C2)cc1 (configuration not stated)
> 30 µM (inactive) | COc1ccc(C2CC(c3ccccc3)=NN2c2ccc(Cl)c(C(=O)O)c2)cc1OC (configuration not stated)
> 30 µM (inactive) | NS(=O)(=O)c1ccc(N2N=C(c3ccccc3)CC2c2ccccc2Br)cc1 (configuration not stated)
> 30 µM (inactive) | COc1ccc(C2CC(c3ccncc3)=NN2c2ccc(S(N)(=O)=O)cc2)cc1 (configuration not stated)
> 30 µM (inactive) | NS(=O)(=O)c1ccc(N2N=C(c3ccccc3)CC2c2ccccc2)cc1 (configuration not stated)
> 30 µM (inactive) | COc1ccc(C2CC(c3ccc(F)cc3)=NN2c2cc(Cl)ccc2Cl)cc1 (configuration not stated)
> 30 µM (inactive) | CN(C)c1ccc(C2CC(c3ccccc3)=NN2c2ccc([N+](=O)[O-])cc2)cc1 (configuration not stated)
> 30 µM (inactive) | COc1ccc(C2CC(C(C)(C)C)=NN2c2ccc(S(N)(=O)=O)cc2)cc1 (configuration not stated)
inactive | COc1ccc(C2=NN(c3ccccc3)C(c3ccc(Cl)cc3)C2)cc1 (configuration not stated)
> 30 µM (inactive) | Cc1ccc(-c2cc(C(F)(F)F)nn2-c2ccc(S(N)(=O)=O)cc2)cc1
> 30 µM (inactive) | COc1ccc(C2CC(c3cccc(OC)c3)=NN2c2ccc(S(N)(=O)=O)cc2)cc1 (configuration not stated)
> 30 µM (inactive) | COc1ccc(C2CC(c3ccc(N(C)C)cc3)=NN2c2ccc(S(N)(=O)=O)cc2)cc1 (configuration not stated)
> 30 µM (inactive) | Cc1ccccc1N1N=C(c2ccccc2)CC1c1cccc([N+](=O)[O-])c1 (configuration not stated)
inactive | COc1ccc(C2=NN(c3ccccc3)C(c3ccccc3C(F)(F)F)C2)cc1 (configuration not stated)
> 30 µM (inactive) | COc1ccc(C2CC(c3cccc(F)c3)=NN2c2ccc(S(N)(=O)=O)cc2)cc1 (configuration not stated)
> 30 µM (inactive) | COc1ccccc1C1CC(c2ccccc2)=NN1c1ccc(S(N)(=O)=O)cc1 (configuration not stated)

EC50 | Structure (SMILES)
> 30 µM (inactive) | COc1ccc(C2CC(c3ccccc3F)=NN2c2ccc(S(N)(=O)=O)cc2)cc1 (configuration not stated)
> 30 µM (inactive) | COc1ccc(C2CC(c3cccc(C(F)(F)F)c3)=NN2c2ccc(S(N)(=O)=O)cc2)cc1 (configuration not stated)
> 30 µM (inactive) | COc1ccc(C2CC(c3ccccc3OC)=NN2c2ccc(S(N)(=O)=O)cc2)cc1 (configuration not stated)
> 30 µM (inactive) | O=[N+]([O-])c1cccc(C2CC(c3ccc(F)cc3)=NN2c2ccccc2)c1 (configuration not stated)
> 30 µM (inactive) | NS(=O)(=O)c1ccc(N2N=C(c3ccccc3)CC2c2ccc(Br)cc2)cc1 (configuration not stated)
> 30 µM (inactive) | COc1ccc(C2CC(c3ccc(F)cc3)=NN2c2ccccc2)cc1OC (configuration not stated)
> 30 µM (inactive) | COc1ccc(C2CC(c3ccc(Br)cc3)=NN2c2ccc(S(N)(=O)=O)cc2)cc1 (configuration not stated)
> 30 µM (inactive) | NS(=O)(=O)c1ccc(N2N=C(c3ccc(Br)cc3)CC2c2ccc(F)cc2)cc1 (configuration not stated)
> 30 µM (inactive) | COc1ccccc1N1N=C(c2ccccc2)CC1c1ccccc1 (configuration not stated)
> 30 µM (inactive) | COc1ccc(C2CC(c3ccccc3Br)=NN2c2ccc(S(N)(=O)=O)cc2)cc1 (configuration not stated)
> 30 µM (inactive) | COc1ccc(C2CC(c3ccccc3Cl)=NN2c2ccc(S(N)(=O)=O)cc2)cc1 (configuration not stated)
> 30 µM (inactive) | COc1ccc(C2=NN(c3ccccc3)C(c3ccc(OC)c(OC)c3C(=O)O)C2)cc1 (configuration not stated)
> 30 µM (inactive) | COc1ccc(C2CC(c3cccnc3)=NN2c2ccc(S(N)(=O)=O)cc2)cc1 (configuration not stated)
> 30 µM (inactive) | COc1ccc(C2CC(c3cccc(Br)c3)=NN2c2ccc(S(N)(=O)=O)cc2)cc1 (configuration not stated)
> 30 µM (inactive) | Fc1ccccc1C1CC(c2ccc(Br)cc2)=NN1c1ccc(Br)cc1 (configuration not stated)
> 30 µM (inactive) | COc1ccc(C2=NN(c3ccc(Cl)cc3)C(c3ccccc3F)C2)cc1 (configuration not stated)
> 30 µM (inactive) | COc1ccc(C2=NN(c3ccc(Cl)c(Cl)c3)C(c3ccc(OC)cc3)C2)cc1 (configuration not stated)
> 30 µM (inactive) | COc1cccc(C2CC(c3ccccc3)=NN2c2ccc(S(N)(=O)=O)cc2)c1 (configuration not stated)
> 30 µM (inactive) | Cc1ccccc1C1CC(c2ccccc2)=NN1c1ccc(S(N)(=O)=O)cc1 (configuration not stated)
> 30 µM (inactive) | COc1ccc(C2CC(c3ccc(F)cc3)=NN2c2ccc(S(N)(=O)=O)cc2)cc1 (configuration not stated)
> 30 µM (inactive) | Brc1ccc(N2N=C(c3ccccc3)CC2c2ccccc2)cc1 (configuration not stated)
> 30 µM (inactive) | O=[N+]([O-])c1ccc(N2N=C(c3ccccc3)CC2c2ccccc2)cc1 (configuration not stated)
> 30 µM (inactive) | Cc1cccc(C2CC(c3ccccc3)=NN2c2ccc(S(N)(=O)=O)cc2)c1 (configuration not stated)
> 30 µM (inactive) | COc1ccc(C2CC(c3ccccc3C(F)(F)F)=NN2c2ccc(S(N)(=O)=O)cc2)cc1 (configuration not stated)
> 30 µM (inactive) | COc1ccc(C2CC(c3cccc(C)c3)=NN2c2ccc(S(N)(=O)=O)cc2)cc1 (configuration not stated)
> 30 µM (inactive) | CN(C)c1ccc(C2CC(c3ccccc3)=NN2c2ccccc2)cc1 (configuration not stated)
> 30 µM (inactive) | COc1ccc(C2CC(c3ccc(Cl)cc3)=NN2c2ccc(S(N)(=O)=O)cc2)cc1 (configuration not stated)

Same assay, conditions: GST-Ras beads, Bodipy-FL-GTP binding, measured here: Ki calculated from EC50

Ki | Structure (SMILES)
0.24 µM | COc1ccc(C2=NN(c3ccccc3)C(c3ccc(Cl)cc3)C2)cc1 (configuration not stated)
1.19 µM | COc1ccc(C2=NN(c3ccccc3)C(c3ccccc3C(F)(F)F)C2)cc1 (configuration not stated)
